Source: ChEMBL document CHEMBL1201862, “PubChem BioAssay data set” (2004)
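Exposure lasted 48 hours, with cells grown in 96-well plates and compounds tested at five concentrations. Abbreviation: GI50, concentration required for 50% inhibition of growth.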 Active and inactive are the calls of the source. No stated cut-off is given here; in the data, active = GI50 up to about 1.1 µM and inactive = higher.

What was measured:
Assay in all cases: growth of human tumour cells (NCI), 48 h
[1] = system: KM12
[2] = system: 786-0
[3] = system: NCI-H460
[4] = system: ACHN
[5] = system: NCI-H226
[6] = system: SF-539
[7] = system: UO-31
[8] = system: OVCAR-4
[9] = system: MOLT-4
[10] = system: NCI-H23
[11] = system: NCI-H522
[12] = system: HL-60
[13] = system: A549
[14] = system: HOP-62
[15] = system: RPMI-8226

Measured: GI50

COC(=O)C(=O)C(C(=O)C(=O)Nc1cccc(C(C)=O)c1)c1nc2ccccc2nc1O (stereo not drawn)
inactive: [1] > 100 µM | [2] > 100 µM | [3] > 100 µM | [4] > 100 µM | [5] > 100 µM | [6] > 100 µM | [7] > 100 µM | [8] > 100 µM | [9] > 100 µM | [10] > 100 µM | [11] > 100 µM | [12] > 100 µM | [13] > 100 µM

CC(=O)NC1=C(C)C(=O)c2c(nc3n2CCC3OC(=O)CCl)C1=O (stereo not drawn)
inactive: [1] 15.6 µM | [2] 9.48 µM | [3] 20.1 µM | [4] 20.7 µM | [5] 2.52 µM | [6] 2.73 µM | [14] 17.1 µM | [15] 2.65 µM | [7] 18 µM | [8] 1.52 µM | [9] 1.69 µM | [10] 11.7 µM | [11] 3.05 µM | [12] 2.51 µM | [13] 12.9 µM

Cc1c(C(=O)CC(=O)C(=O)Nc2cc(Cl)ccc2Cl)[n+]([O-])c2ccccc2[n+]1[O-]
inactive: [1] 37.3 µM | [2] 61.5 µM | [3] 37 µM | [4] > 100 µM | [5] > 100 µM | [6] 47.8 µM | [14] > 100 µM | [15] 21.7 µM | [7] > 100 µM | [8] 46.1 µM | [9] 26.6 µM | [10] 21.5 µM | [11] 23.1 µM | [13] 40.1 µM

O=C1CSc2cc([N+](=O)[O-])ccc2N1
inactive: [1] > 100 µM | [2] > 100 µM | [3] > 100 µM | [4] > 100 µM | [5] > 100 µM | [6] > 100 µM | [14] > 100 µM | [8] > 100 µM | [9] > 100 µM | [10] > 100 µM | [11] > 100 µM | [13] > 100 µM

O=S(=O)(/C=C/c1ccc(Cl)cc1Cl)Cc1ccccc1CS(=O)(=O)/C=C/c1ccc(Cl)cc1Cl
inactive: [1] > 100 µM | [2] > 100 µM | [3] 88.7 µM | [4] 63.8 µM | [5] > 100 µM | [6] > 100 µM | [14] > 100 µM | [15] 5.15 µM | [7] > 100 µM | [8] 11.9 µM | [9] 88.7 µM | [10] > 100 µM | [11] > 100 µM | [13] 18 µM

Cc1ccc(S(=O)(=O)N/N=C/c2oc(-c3ccccc3Cl)c(-c3ccccc3Cl)c2[N+](=O)[O-])cc1
inactive: [1] > 100 µM | [2] 19.5 µM | [3] 13.2 µM | [4] 13.9 µM | [6] 22.4 µM | [14] 17.6 µM | [15] 3.73 µM | [7] 17.8 µM | [8] 30 µM | [9] 11.5 µM | [10] 13.4 µM | [11] 6.07 µM | [12] 8.02 µM | [13] 24.2 µM

CCC(=O)c1c(NOC2OCC(OC(C)=O)C(OC(C)=O)C2OC(C)=O)nc(OC)n(C)c1=O (stereo not drawn)
inactive: [1] > 100 µM | [2] > 100 µM | [3] > 100 µM | [4] > 100 µM | [5] > 100 µM | [6] > 100 µM | [14] > 100 µM | [15] > 100 µM | [7] > 100 µM | [8] > 100 µM | [9] > 100 µM | [10] > 100 µM | [12] > 100 µM | [13] > 100 µM

CCOC(=O)C12CCCC1(O)N(NC(=O)c1cccc(Cl)c1)C(C)=C2C(=O)OC (stereo not drawn)
inactive: [1] > 100 µM | [2] > 100 µM | [3] > 100 µM | [4] > 100 µM | [5] > 100 µM | [6] > 100 µM | [14] > 100 µM | [15] 56 µM | [7] > 100 µM | [8] > 100 µM | [9] 55.7 µM | [11] 40.5 µM | [12] > 100 µM | [13] > 100 µM

C[C@@H](NS(=O)(=O)c1ccc(NC(=O)c2ccccc2)cc1)C(=O)O
inactive: [1] > 100 µM | [2] > 100 µM | [3] > 100 µM | [4] > 100 µM | [6] > 100 µM | [15] > 100 µM | [7] > 100 µM | [8] > 100 µM | [9] > 100 µM | [10] > 100 µM | [11] > 100 µM | [12] > 100 µM | [13] > 100 µM

CN(C(=O)C12C3C4C1C1C2C3C41C(=O)C(C)(C)C)C(C)(C)C (stereo not drawn)
inactive: [1] > 100 µM | [2] > 100 µM | [4] > 100 µM | [6] > 100 µM | [14] > 100 µM | [15] > 100 µM | [7] > 100 µM | [8] > 100 µM | [9] > 100 µM | [10] > 100 µM | [11] 22 µM | [12] 63.5 µM | [13] > 100 µM

CCN(CC)CC(=O)NC1c2ccccc2Oc2c(C)cccc21 (stereo not drawn)
inactive: [2] > 100 µM | [3] > 100 µM | [4] 32.9 µM | [5] > 100 µM | [6] > 100 µM | [14] > 100 µM | [15] 78.7 µM | [7] 23.2 µM | [8] > 100 µM | [9] 62.7 µM | [10] > 100 µM | [12] 37.7 µM | [13] > 100 µM

CC(=O)C1CCN(c2ccccc2)C1 (stereo not drawn)
inactive: [1] > 100 µM | [2] > 100 µM | [3] > 100 µM | [4] > 100 µM | [5] > 100 µM | [6] > 100 µM | [14] > 100 µM | [7] > 100 µM | [8] > 100 µM | [9] > 100 µM | [10] > 100 µM | [11] > 100 µM | [12] > 100 µM | [13] > 100 µM

N#CC12Cc3ccc4c(c3-c3cccc(c31)CCN2C(=O)c1ccccc1)OCO4 (stereo not drawn)
inactive: [1] > 100 µM | [2] 71.6 µM | [4] 71.8 µM | [5] > 100 µM | [6] > 100 µM | [14] > 100 µM | [15] > 100 µM | [7] > 100 µM | [9] > 100 µM | [10] > 100 µM | [11] > 10 µM | [12] > 100 µM | [13] > 100 µM

O=CC1=CCC2c3[nH]c4ccccc4c3CCN2C1 (stereo not drawn)
inactive: [1] 73.1 µM | [2] 141 µM | [3] 139 µM | [4] 219 µM | [5] 117 µM | [6] 175 µM | [14] > 39.6 µM | [15] 112 µM | [9] 90.2 µM | [10] 83 µM | [11] 325 µM | [12] 77.6 µM | [13] > 396 µM

Clc1ccc(CCn2cncn2)c(Cl)c1
inactive: [1] > 100 µM | [2] > 100 µM | [3] > 100 µM | [4] > 100 µM | [5] > 100 µM | [6] > 100 µM | [14] > 100 µM | [7] > 100 µM | [8] > 100 µM | [9] > 100 µM | [10] > 100 µM | [11] > 100 µM | [12] > 100 µM | [13] > 100 µM

CN(C)C(=S)OC(Cn1cncn1)c1ccc(Cl)cc1Cl (stereo not drawn)
inactive: [1] > 100 µM | [2] > 100 µM | [3] > 100 µM | [4] > 100 µM | [5] > 100 µM | [6] > 100 µM | [14] > 100 µM | [15] > 100 µM | [7] > 100 µM | [8] > 100 µM | [9] > 100 µM | [10] > 100 µM | [11] > 100 µM | [12] > 100 µM | [13] > 100 µM

CC#CC(=O)Nc1ccccc1CC(c1c[nH]c2ccccc12)c1c[nH]c2ccccc12
inactive: [1] 22.3 µM | [2] 18.3 µM | [5] 15.5 µM | [6] 20.4 µM | [14] 20 µM | [15] 8.32 µM | [7] 7.19 µM | [9] 5.68 µM | [10] 18.8 µM | [11] > 10 µM | [12] 10.8 µM | [13] 20.5 µM

O=C(O)C[C@@H](Cl)[C@H](NC(=O)OCc1ccccc1)C(=O)O
inactive: [1] > 100 µM | [2] > 100 µM | [3] > 100 µM | [4] > 100 µM | [5] > 100 µM | [6] > 100 µM | [14] > 100 µM | [15] > 100 µM | [7] > 100 µM | [8] > 100 µM | [9] > 100 µM | [10] > 100 µM | [11] > 100 µM | [12] > 100 µM | [13] > 100 µM

COC(=O)CC(C(C(C)=O)C(=O)OCc1ccccc1)N1C(=O)OCC1c1ccccc1 (stereo not drawn)
inactive: [2] > 100 µM | [3] 75.2 µM | [4] > 100 µM | [5] 60.5 µM | [6] > 100 µM | [14] > 100 µM | [15] 51.5 µM | [7] 44.4 µM | [8] 71.3 µM | [9] 45.9 µM | [10] > 100 µM | [12] 91.6 µM | [13] 62.8 µM
